From patent US20260265238A1, “COMPOUNDS AND PHARMACEUTICAL COMPOSITIONS THAT DEGRADE SWI/SNF-RELATED MATRIX-ASSOCIATED ACTIN-DEPENDENT REGULATOR OF CHROMATIN SUBFAMILY A” (Plexium, Inc., priority 2023, published 2026) come the findings set out here.

In assay [1] the target is T1, SMARCA2-HiBiT HeLa cells (protein which is expressed from the SMARCA2 gene) (Homo sapiens, UniProt P51531).
T1 construct: protein which is expressed from the SMARCA2 and SMARCA4 genes; host or cells: HeLa (SMARCA2-HiBiT engineered line)
T1 sequence (P51531 whole entry): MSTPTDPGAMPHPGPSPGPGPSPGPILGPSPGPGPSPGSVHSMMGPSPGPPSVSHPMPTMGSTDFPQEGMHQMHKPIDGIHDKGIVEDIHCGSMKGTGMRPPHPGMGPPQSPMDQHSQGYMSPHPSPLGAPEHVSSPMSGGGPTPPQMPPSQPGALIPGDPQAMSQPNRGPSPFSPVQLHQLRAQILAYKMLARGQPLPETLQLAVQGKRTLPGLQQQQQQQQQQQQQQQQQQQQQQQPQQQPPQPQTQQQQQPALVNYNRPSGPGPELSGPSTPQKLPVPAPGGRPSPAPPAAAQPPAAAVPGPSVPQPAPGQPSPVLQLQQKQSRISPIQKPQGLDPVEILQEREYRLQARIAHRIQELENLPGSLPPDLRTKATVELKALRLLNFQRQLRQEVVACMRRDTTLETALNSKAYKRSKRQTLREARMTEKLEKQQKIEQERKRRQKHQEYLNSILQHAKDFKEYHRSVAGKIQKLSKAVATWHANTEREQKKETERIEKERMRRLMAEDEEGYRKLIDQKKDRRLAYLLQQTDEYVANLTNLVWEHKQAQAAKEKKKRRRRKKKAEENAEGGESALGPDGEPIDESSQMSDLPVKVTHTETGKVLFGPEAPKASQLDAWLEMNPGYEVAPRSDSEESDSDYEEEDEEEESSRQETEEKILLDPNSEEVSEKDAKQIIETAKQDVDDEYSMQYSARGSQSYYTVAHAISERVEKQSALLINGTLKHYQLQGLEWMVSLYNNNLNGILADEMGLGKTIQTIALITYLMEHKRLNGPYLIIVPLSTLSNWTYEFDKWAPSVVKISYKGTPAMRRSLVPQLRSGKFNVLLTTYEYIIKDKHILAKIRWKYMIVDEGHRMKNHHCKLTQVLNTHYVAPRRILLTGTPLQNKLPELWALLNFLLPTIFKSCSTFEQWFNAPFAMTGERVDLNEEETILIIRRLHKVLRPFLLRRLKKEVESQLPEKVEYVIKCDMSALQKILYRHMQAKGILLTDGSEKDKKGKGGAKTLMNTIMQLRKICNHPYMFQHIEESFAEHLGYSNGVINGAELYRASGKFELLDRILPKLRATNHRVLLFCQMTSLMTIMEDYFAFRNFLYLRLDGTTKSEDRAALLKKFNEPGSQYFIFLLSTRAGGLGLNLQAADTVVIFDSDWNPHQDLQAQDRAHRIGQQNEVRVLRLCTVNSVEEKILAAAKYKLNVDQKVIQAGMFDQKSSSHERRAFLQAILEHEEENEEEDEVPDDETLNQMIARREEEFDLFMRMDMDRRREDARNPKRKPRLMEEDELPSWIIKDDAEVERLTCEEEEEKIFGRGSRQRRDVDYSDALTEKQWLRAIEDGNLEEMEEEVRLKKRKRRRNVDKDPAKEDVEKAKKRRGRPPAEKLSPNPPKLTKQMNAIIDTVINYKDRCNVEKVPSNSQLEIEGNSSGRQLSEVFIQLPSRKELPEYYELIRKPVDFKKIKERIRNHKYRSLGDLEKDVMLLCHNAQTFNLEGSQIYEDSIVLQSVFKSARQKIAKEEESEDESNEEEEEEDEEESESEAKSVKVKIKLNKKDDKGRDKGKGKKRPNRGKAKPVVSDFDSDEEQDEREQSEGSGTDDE
Put plainly: SMARCA2 degradation assay (HiBiT-fusion HeLa cell line, 24 h, luminescence). The class given is cell-based. The essentials: (§1)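 HiBiT-fusion HeLa lines, 8,000 cells/well, overnight attachment; cpd 10-pt series (typically 10 μM–300 pM), 24 h, 37° C. Lysis with LgBiT + HiBiT substrate, 10 min shaking at RT, luminescence read. DC50 from dose-response fit; % degradation also scored at 1 μM.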

Assay [2] deals with T2, SMARCA4-HiBiT HeLa cells (protein which is expressed from the SMARCA4 gene) (Homo sapiens, UniProt P51532).
T2 construct: protein which is expressed from the SMARCA2 and SMARCA4 genes; host or cells: HeLa (SMARCA4-HiBiT engineered line)
T2 sequence (P51532 whole entry): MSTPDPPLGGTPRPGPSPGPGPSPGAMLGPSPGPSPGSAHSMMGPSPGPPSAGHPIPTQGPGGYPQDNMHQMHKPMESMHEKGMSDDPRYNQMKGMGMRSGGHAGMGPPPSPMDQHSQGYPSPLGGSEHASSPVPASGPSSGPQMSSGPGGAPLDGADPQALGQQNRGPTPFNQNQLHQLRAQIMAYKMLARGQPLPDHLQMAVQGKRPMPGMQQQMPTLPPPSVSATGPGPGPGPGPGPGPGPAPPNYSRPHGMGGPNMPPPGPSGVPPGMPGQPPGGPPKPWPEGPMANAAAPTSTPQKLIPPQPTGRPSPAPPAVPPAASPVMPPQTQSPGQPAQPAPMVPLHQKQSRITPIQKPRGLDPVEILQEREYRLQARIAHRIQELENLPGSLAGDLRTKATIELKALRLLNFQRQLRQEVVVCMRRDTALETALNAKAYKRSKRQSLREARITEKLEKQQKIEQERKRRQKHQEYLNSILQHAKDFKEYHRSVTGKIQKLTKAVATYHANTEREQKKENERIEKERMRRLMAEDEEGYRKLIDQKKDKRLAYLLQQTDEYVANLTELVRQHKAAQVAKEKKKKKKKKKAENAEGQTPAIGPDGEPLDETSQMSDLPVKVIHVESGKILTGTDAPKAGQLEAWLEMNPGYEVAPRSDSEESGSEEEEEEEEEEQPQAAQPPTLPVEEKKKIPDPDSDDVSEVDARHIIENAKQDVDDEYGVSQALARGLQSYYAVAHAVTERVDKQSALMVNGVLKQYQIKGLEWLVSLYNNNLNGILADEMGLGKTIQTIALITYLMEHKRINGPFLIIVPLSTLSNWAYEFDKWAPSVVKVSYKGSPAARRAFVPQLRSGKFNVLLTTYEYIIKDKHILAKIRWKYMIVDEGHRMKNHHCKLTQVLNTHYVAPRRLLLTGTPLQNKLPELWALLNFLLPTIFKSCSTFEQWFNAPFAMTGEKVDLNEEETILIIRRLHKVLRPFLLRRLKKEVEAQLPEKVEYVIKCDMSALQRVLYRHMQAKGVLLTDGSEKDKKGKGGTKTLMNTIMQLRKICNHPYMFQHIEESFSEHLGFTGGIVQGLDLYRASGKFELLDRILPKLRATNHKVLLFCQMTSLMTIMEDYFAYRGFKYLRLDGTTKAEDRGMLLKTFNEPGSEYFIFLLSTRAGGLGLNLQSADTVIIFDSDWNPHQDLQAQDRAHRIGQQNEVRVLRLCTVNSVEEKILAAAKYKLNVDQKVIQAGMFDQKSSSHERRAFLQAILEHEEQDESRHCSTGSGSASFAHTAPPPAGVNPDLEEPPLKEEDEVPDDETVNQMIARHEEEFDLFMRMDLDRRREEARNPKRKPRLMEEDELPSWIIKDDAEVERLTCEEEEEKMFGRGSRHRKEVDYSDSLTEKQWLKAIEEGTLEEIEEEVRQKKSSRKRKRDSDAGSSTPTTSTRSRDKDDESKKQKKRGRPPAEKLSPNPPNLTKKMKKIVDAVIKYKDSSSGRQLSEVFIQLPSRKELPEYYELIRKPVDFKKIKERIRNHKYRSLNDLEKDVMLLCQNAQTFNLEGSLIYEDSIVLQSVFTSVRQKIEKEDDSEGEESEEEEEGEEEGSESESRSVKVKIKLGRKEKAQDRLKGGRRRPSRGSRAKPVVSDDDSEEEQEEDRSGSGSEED
Put plainly: SMARCA4 degradation assay (HiBiT-fusion HeLa cell line, 24 h, luminescence). The class given is cell-based. An outline of the steps:
as §1

The structures appear in SMILES notation. Where only a bound is given, the exact number is not on record here.

Take `COC1CN(CC#Cc2nccc(N3CCCN(c4cc(-c5ccccc5O)nnc4N)CC3)n2)C1` [Compound P-309, 0-[6-amino-5-(4-{2-[3-(3-methoxy-1-azetidinyl)-1-propynyl]-4-pyrimidinyl}-1,4-diazepan-1-yl)-3-pyridazinyl]phenol]: in assay [1], the 50% degradation concentration (DC50) is 0.05 to 0.5 µM and the “SMARCA2 % Degradation @ 1 μM” value is recorded as “++ (++=30-70%)”. The same compound came in with a DC50 in assay [2] of 0.05 to 0.5 µM. The compound further returned an inhibition at 1 µM in assay [2] (@ 1 μM) of 30 to 70%.
Take `Nc1nnc(-c2ccccc2O)cc1N1CC2CCC(C1)N2c1ccnc(C#CCn2nnc3ccccc32)n1` [Compound P-132, 2-(5-(8-(2-(3-(1H-benzo[d][1,2,3]triazol-1-yl)prop-1-yn-1-yl)pyrimidin-4-yl)-3,8-diazabicyclo| 3.2.1 |octan-3-yl)-6-aminopyridazin-3-yl)phenol]: in assay [1], the DC50 was in the range of 0.5 to 5 µM and the “SMARCA2 % Degradation @ 1 μM” value is given as “++ (++=30-70%)”. Moreover, the 50% degradation concentration (DC50) in assay [2] lay in the range of 0.5 to 5 µM. Moreover, in assay [2] (@ 1 μM), the inhibition at 1 µM is 30 to 70%.
As for `Cc1nn2ccn(CC#Cc3nccc(N4CCN(c5cnnc(-c6ccccc6O)c5)CC[C@H]4C)n3)c(=O)c2c1C` [Compound P-235, 5-[3-(4-{ (R)-4-[6-(o-hydroxyphenyl)-4-pyridaziny1]-7-methyl-1,4-diazepan-1-yl}-2-pyrimidinyl)-2-propynyl]-2,3-dimethyl-1,5,7a-triaza-4(5H)-indenone], in assay [1], the DC50 fell in the range of 0.05 to 0.5 µM and the “SMARCA2 % Degradation @ 1 μM” value was “+ (+=<30%)”. The compound further returned a DC50 in assay [2] of 0.5 to 5 µM. The compound further had an inhibition at 1 µM in assay [2] (@ 1 μM) of under 30%.
The like results for `Nc1nnc(-c2ccccc2O)cc1N1CCN(c2ccnc(C#CCNC(=O)c3cnn4ccccc34)n2)CC1` [Compound P-65, N-(3-(4-(4-(3-amino-6-(2-hydroxyphenyl)pyridazin-4-yl)piperazin-1-yl)pyrimidin-2-yl)prop-2-yn-1-yl)pyrazolo[1,5-a]pyridine-3-carboxamide] were, in that order, 0.05 to 0.5 µM, “++ (++=30-70%)”, 0.05 to 0.5 µM and 30 to 70%.
For `Nc1nnc(-c2ccccc2O)cc1N1C2CCC1CN(c1ccnc(C#CCN3CC4CC3C4)n1)C2` [Compound P-182, o-{6-amino-5-[3-(2-{3-(2-azabicyclo[2.1.1]hex-2-yl)-1-propynyl}-4-pyrimidinyl)-3,8-diazabicyclo[3.2.1]oct-8-yl]-3-pyridazinyl}phenol], in assay [1], the DC50 was in the range of 0.05 to 0.5 µM and the “SMARCA2 % Degradation @ 1 μM” value is “++ (++=30-70%)”. In assay [2], this compound registered a DC50 of 0.05 to 0.5 µM. Moreover, the inhibition at 1 µM in assay [2] (@ 1 μM) is 30 to 70%.
As for `CN(C)CC#Cc1ncc(F)c(N2C3CCC2CN(c2cc(-c4ccccc4O)nnc2N)C3)n1` [Compound P-225, o-[6-amino-5-(8-{2-[3-(dimethylamino)-1-propynyl]-5-fluoro-4-pyrimidinyl}-3,8-diazabicyclo[3.2.1]oct-3-yl)-3-pyridazinyl]phenol], in assay [1], the DC50 is under 0.05 µM and the “SMARCA2 % Degradation @ 1 μM” value was “++ (++=30-70%)”. In assay [2], this compound had a half-maximal degradation concentration (DC50) of under 0.05 µM. The compound further registered an inhibition at 1 µM in assay [2] (@ 1 μM) of 30 to 70%.
Take `CC(C)(C)OC(=O)NCC#Cc1nccc(N2CCC3CCC(C2)N3c2cc(-c3ccccc3O)nnc2N)n1` (stereo not shown) [Compound P-267, 3-(4-{9-[3-amino-6-(o-hydroxyphenyl)-4-pyridaziny1]-3,9-diazabicyclo[4.2.1]non-3-yl}-2-pyrimidinyl)-2-propynylamino-tert-butylformylate]: in assay [1], the DC50 was 0.05 to 0.5 µM and the “SMARCA2 % Degradation @ 1 μM” value is on record as “+++ (+++=>70%)”. The compound also gave a DC50 in assay [2] of 0.05 to 0.5 µM. Further, the inhibition at 1 µM in assay [2] (@ 1 μM) lay in the range of 30 to 70%.
Regarding `C[C@@H]1CCN(c2cc(-c3ccccc3O)nnc2N)CCN1c1ccnc(C#CCNC(=O)OC2CC/C=C\CCC2)n1` (stereo partly drawn) [Compound P-268, 4-[(R)-4-(2-{3-[(Z)-4-cycloocten-1-yloxycarbonylamino]-1-propynyl}-4-pyrimidinyl)-5-methyl-1,4-diazepan-1-yl]-6-(o-hydroxyphenyl)-3-pyridazinamine], in assay [1], the DC50 is 0.05 to 0.5 µM and the “SMARCA2 % Degradation @ 1 μM” value is listed as “+++ (+++=>70%)”. The half-maximal degradation concentration (DC50) in assay [2] was 0.05 to 0.5 µM. Further, the inhibition at 1 µM in assay [2] (@ 1 μM) was in the range of 30 to 70%.
On to `Cc1nn2ccn(CC#Cc3nccc(N4C[C@H]5C[C@@H]4CN5c4cc(-c5ccccc5O)nnc4N)n3)c(=O)c2c1C` [Compound P-286, 5-[3-(4-{(1R,4R)-5-[3-amino-6-(0-hydroxyphenyl)-4-pyridazinyl]-2,5-diazabicyclo[2.2.1]hept-2-y1}-2-pyrimidinyl)-2-propynyl]-2,3-dimethyl-1,5,7a-triaza-4(5H)-indenone], for which, in assay [1], the DC50 lay in the range of 0.05 to 0.5 µM and the “SMARCA2 % Degradation @ 1 μM” value is “++ (++=30-70%)”. Moreover, in assay [2], the DC50 was in the range of 0.05 to 0.5 µM. The inhibition at 1 µM in assay [2] (@ 1 μM) was 30 to 70%.
For `CN(C)CC#Cc1nccc(N2C3CC2CN(c2cc(-c4ccccc4O)nnc2N)C3)n1` [Compound P-206, o-[6-amino-5-(6-{2-[3-(dimethylamino)-1-propynyl]-4-pyrimidinyl}-3,6-diazabicyclo[3.1.1]hcpt-3-yl)-3-pyridazinyl]phenol], in assay [1], the DC50 was under 0.05 µM and the “SMARCA2 % Degradation @ 1 μM” value is reported as “+++ (+++=>70%)”. This compound also returned a DC50 in assay [2] of 0.05 to 0.5 µM. Further, in assay [2] (@ 1 μM), the inhibition at 1 µM was over 70%.
With `CN(C)CC#Cc1nccc(N2CC(n3cc(-c4cc(-c5ccccc5O)nnc4N)cn3)C2)n1` [Compound P-216, o-{6-amino-5-[1-(1-{2-[3-(dimethylamino)-1-propynyl]-4-pyrimidinyl}-3-azetidinyl)-4-pyrazolyl]-3-pyridazinyl} phenol], in assay [1], the DC50 is under 0.05 µM and the “SMARCA2 % Degradation @ 1 μM” value is given as “++ (++=30-70%)”. The compound further came in with a DC50 in assay [2] of under 0.05 µM. In assay [2] (@ 1 μM), this compound yielded an inhibition at 1 µM of 30 to 70%.
For the compound `Nc1nnc(-c2ccccc2O)cc1N1CCCN(c2ccnc(C#CCN3CCn4c(nnc4C(F)(F)F)C3)n2)CC1` [Compound P-363, 0-{6-amino-5-[4-(2-{3-[3-(trifluoromethyl)-4,5,6,7-tetrahydro-1,2,3a,6-tetraaza-6-indenyl]-1-propynyl}-4-pyrimidinyl)-1,4-diazepan-1-yl]-3-pyridaziny1} phenol], in assay [1], the DC50 lay in the range of 0.5 to 5 µM and the “SMARCA2 % Degradation @ 1 μM” value was “++ (++=30-70%)”. Moreover, in assay [2], the DC50 lay in the range of 0.5 to 5 µM. Moreover, in assay [2] (@ 1 μM), the inhibition at 1 µM was in the range of 30 to 70%.
With `CC(C)(C)OC(=O)NC1CCN(CC#Cc2nccc(N3C4CCC3CN(c3cnnc(-c5ccccc5O)c3)C4)n2)CC1` [Compound P-368, tert-butyl-1-[3-(4-{3-[6-(o-hydroxyphenyl)-4-pyridazinyl]-3,8-diazabicyclo[3.2.1]oct-8-y1}-2-pyrimidinyl)-2-propynyl]-4-piperidylaminoformylate], in assay [1], the DC50 fell in the range of 0.05 to 0.5 µM and the “SMARCA2 % Degradation @ 1 μM” value was “++ (++=30-70%)”. Also, the 50% degradation concentration (DC50) in assay [2] was in the range of 0.05 to 0.5 µM. Besides, the “SMARCA4 % Degradation @ 1 μM” value in assay [2] (@ 1 μM) is recorded as “++ (++=30-70%)”.
As for `Nc1nnc(-c2ccccc2O)cc1N1CCCN(c2ccnc(C#CCN3C4CCC3CC(O)C4)n2)CC1` (stereo not shown) [Compound P-338, 8-[3-(4-{4-[3-amino-6-(o-hydroxyphenyl)-4-pyridazinyl]-1,4-diazepan-1-yl}-2-pyrimidinyl)-2-propynyl]-8-azabicyclo[3.2.1]octan-3-ol], in assay [1], the DC50 lay within 0.05 to 0.5 µM and the “SMARCA2 % Degradation @ 1 μM” value is reported as “++ (++=30-70%)”. In assay [2], this compound yielded a DC50 of 0.05 to 0.5 µM. The compound also had an inhibition at 1 µM in assay [2] (@ 1 μM) of under 30%.
`Cn1ccc(NCC#Cc2nccc(N3C4CCC3CN(c3cc(-c5ccccc5O)nnc3N)C4)n2)n1` [Compound P-287]: the DC50 in assay [1] and in assay [2] was 0.05 to 0.5 µM in each case. Moreover, the “SMARCA2 % Degradation @ 1 μM” value in assay [1] was “++ (++=30-70%)”. Besides, the inhibition at 1 µM in assay [2] (@ 1 μM) was 30 to 70%.
Turning to `C[C@@H]1CCN(c2cc(-c3ccccc3O)nnc2N)CCN1c1ccnc(C#CCN2CC3CCC2CO3)n1` (stereo partly drawn) [Compound P-178, o-{5-[(R)-5-methyl-4-(2-{3-(2-oxa-5-azabicyclo[2.2.2]oct-5-yl)-1-propynyl}-4-pyrimidinyl)-1,4-diazepan-1-yl]-6-amino-3-pyridazinyl}phenol], the DC50 in assay [1] and in assay [2] was 0.05 to 0.5 µM throughout. Further, the “SMARCA2 % Degradation @ 1 μM” value in assay [1] is reported as “+++ (+++=>70%)”. Further, the inhibition at 1 µM in assay [2] (@ 1 μM) was in the range of 30 to 70%.
With `Nc1nnc(-c2ccccc2O)cc1N1CCCN(c2ccnc(/C=C/CNC(=O)c3cc4ncccn4n3)n2)CC1` [Compound P-112, (E)-N-(3-(4-(4-(3-amino-6-(2-hydroxyphenyl)pyridazin-4-yl)-1,4-diazepan-1-yl)pyrimidin-2-yl)allyl)pyrazolo[1,5-a]pyrimidine-2-carboxamide], in assay [1], the DC50 was in the range of 0.05 to 0.5 µM and the “SMARCA2 % Degradation @ 1 μM” value is “+++ (+++=>70%)”. The compound further had a DC50 in assay [2] of 0.05 to 0.5 µM. Further, the inhibition at 1 µM in assay [2] (@ 1 μM) was over 70%.
As to `C[C@@H]1CN(c2cc(-c3ccccc3O)nnc2N)CCN1c1ccnc(C#CCNC(=O)c2cc3ncccn3n2)n1` [Compound P-50, (R)-N-(3-(4-(4-(3-amino-6-(2-hydroxyphenyl)pyridazin-4-yl)-2-methylpiperazin-1-yl)pyrimidin-2-yl)prop-2-yn-1-yl)pyrazolo[1,5-a]pyrimidine-2-carboxamide], in assay [1], the DC50 was under 0.05 µM and the “SMARCA2 % Degradation @ 1 μM” value is “++ (++=30-70%)”. In assay [2], this compound had a DC50 of under 0.05 µM. For the same compound, the inhibition at 1 µM in assay [2] (@ 1 μM) is 30 to 70%.
`C[C@H]1CCN1CC#Cc1nccc(N2CCCN(c3cc(-c4ccccc4O)nnc3N)CC2)n1` [Compound P-279, 0-{5-[4-(2-{3-[(S)-2-methyl-1-azetidinyl]-1-propynyl}-4-pyrimidinyl)-1,4-diazepan-1-y1]-6-amino-3-pyridazinyl}phenol]: in assay [1], the DC50 was 0.05 to 0.5 µM and the “SMARCA2 % Degradation @ 1 μM” value was “+++ (+++=>70%)”. The compound further gave a DC50 in assay [2] of 0.05 to 0.5 µM. In assay [2] (@ 1 μM), this compound registered an inhibition at 1 µM of 30 to 70%.
